Reference: the NIST ThermoML archive (doi:10.1016/j.jct.2016.11.022)
± gives the expanded uncertainty stated by the source.

What was measured:
[1] = DTA
[2] = Molar enthalpy of transition or fusion; conditions: DSC

Normal melting temperature ([1]; Crystal) [°C] | Normal melting temperature ([1]; Metastable crystal) [°C] | Molar enthalpy of transition or fusion ([2]; Crystal) [kcal/mol] | Molar enthalpy of transition or fusion ([2]; Metastable crystal) [kcal/mol] | Compound
80.62 ± 1.1 | 70.14 ± 1.1 | 3.26 ± 0.335 | 2.78 ± 0.287 | CC(N)=O [ethanamide]
69.47 ± 1.1 |  | 14.4 ± 1.46 |  | CCCCCCCCCCCCCCCCCC(=O)O [octadecanoic acid]
